Reference: article PMC9609429 (Pharmaceuticals, 2022)

Columns and labels:
normotensive rats [1] = assay: Effect on a normal electrocardiogram in rats; format: in vivo; set-up: Rate: unit not given here; conditions: rat; for PR / QRS: in ms (unit assumed)
Experimental: To verify the influence of the tested compound on the normal electrocardiogram (ECG), the experiment was performed. Aspel ASCARD apparatus (standard II lead, with tape speed 50 mm/s and voltage calibration 1 mV = 1 cm) was used for ECG measurements. Normotensive rats were anesthetized with thiopental (75 mg/kg ip). The ECG was recorded prior and 5, 10, 15, 20, 30, 40, 50, 60, and 80 min after intraperitoneal administration of the tested compound. The influence on PQ, QTc interval, QRS complex, and heart rate was evaluated. Bazzett’s formula, QTc = QT/√RR, was used to calculate QTc.

normotensive rats [2] = assay: Influence on blood pressure in normotensive rats; format: in vivo, rat
Experimental: Normotensive rats were anesthetized with thiopental (75 mg/kg ip). The right carotid artery was cannulated with a polyethylene tube filled with heparin solution to allow pressure measurements, using a Datamax apparatus (Columbus Instruments, Columbus, OH, USA). The tested compound was administered intraperitoneally after 15 min of stabilization period and its effect on blood pressure was measured.

D2 receptors = system: D2 receptors; set-up: method as in PMID 34451841; conditions: previous studies; cited from earlier work
mice = system: mice; set-up: method as in PMID 34451841; conditions: previous studies; cited from earlier work
[3] = 1.25 mg/kg ip, from 5 min after injection

Question: Which results are given for `CCC(CN1CCN(c2ccccc2OC)CC1)NCCCOc1c(C)cccc1C.Cl.Cl` (stereo not drawn) [HBK-10, N-(3-(2,6-dimethylphenoxy)propyl)-1-(4-(2-methoxyphenyl)piperazin-1-yl)butan-2-amine dihydrochloride]?
Answer: dose influencing normal ECG relative to median effective dose in adrenaline-induced arrhythmia model (normotensive rats [1]): 160 fold; effect on PR (normotensive rats [1]; 10 mg/kg): no effect; effect on QRS (normotensive rats [1]; 10 mg/kg): no effect; effect on QTc (normotensive rats [1]; 10 mg/kg): no effect; effect on heart rate (normotensive rats [1]; 10 mg/kg): no effect; QTc (normotensive rats [1]; 10 mg/kg ip, 0 min): 215.3 ± 19.3; Rate (normotensive rats [1]; 10 mg/kg ip, 0 min): 357.1 ± 22.6; PR (normotensive rats [1]; 10 mg/kg ip, 0 min): 53.9 ± 2.8; QRS (normotensive rats [1]; 10 mg/kg ip, 0 min): 22.6 ± 1.8; QTc (normotensive rats [1]; 10 mg/kg ip, 5 min): 213.2 ± 20.8; Rate (normotensive rats [1]; 10 mg/kg ip, 5 min): 347.3 ± 25.2; PR (normotensive rats [1]; 10 mg/kg ip, 5 min): 53.0 ± 3.3; QRS (normotensive rats [1]; 10 mg/kg ip, 5 min): 21.5 ± 1.4; QTc (normotensive rats [1]; 10 mg/kg ip, 10 min): 214.4 ± 20.0; Rate (normotensive rats [1]; 10 mg/kg ip, 10 min): 347.9 ± 29.2; PR (normotensive rats [1]; 10 mg/kg ip, 10 min): 55.8 ± 2.0; QRS (normotensive rats [1]; 10 mg/kg ip, 10 min): 23.2 ± 3.6; QTc (normotensive rats [1]; 10 mg/kg ip, 15 min): 212.4 ± 12.3; Rate (normotensive rats [1]; 10 mg/kg ip, 15 min): 345.0 ± 32.7; PR (normotensive rats [1]; 10 mg/kg ip, 15 min): 54.9 ± 2.4; QRS (normotensive rats [1]; 10 mg/kg ip, 15 min): 23.5 ± 2.6; QTc (normotensive rats [1]; 10 mg/kg ip, 20 min): 216.7 ± 13.8; Rate (normotensive rats [1]; 10 mg/kg ip, 20 min): 343.4 ± 33.6; PR (normotensive rats [1]; 10 mg/kg ip, 20 min): 53.1 ± 4.4; QRS (normotensive rats [1]; 10 mg/kg ip, 20 min): 23.6 ± 2.9; QTc (normotensive rats [1]; 10 mg/kg ip, 30 min): 213.7 ± 19.0; Rate (normotensive rats [1]; 10 mg/kg ip, 30 min): 338.5 ± 26.3; PR (normotensive rats [1]; 10 mg/kg ip, 30 min): 52.2 ± 4.4; QRS (normotensive rats [1]; 10 mg/kg ip, 30 min): 22.9 ± 1.6; QTc (normotensive rats [1]; 10 mg/kg ip, 40 min): 221.4 ± 16.9; Rate (normotensive rats [1]; 10 mg/kg ip, 40 min): 337.5 ± 25.0; PR (normotensive rats [1]; 10 mg/kg ip, 40 min): 55.6 ± 2.6; QRS (normotensive rats [1]; 10 mg/kg ip, 40 min): 24.5 ± 1.8; QTc (normotensive rats [1]; 10 mg/kg ip, 50 min): 218.8 ± 11.8; Rate (normotensive rats [1]; 10 mg/kg ip, 50 min): 342.2 ± 25.8; PR (normotensive rats [1]; 10 mg/kg ip, 50 min): 53.6 ± 4.4; QRS (normotensive rats [1]; 10 mg/kg ip, 50 min): 23.9 ± 2.5; QTc (normotensive rats [1]; 10 mg/kg ip, 60 min): 217.4 ± 22.0; Rate (normotensive rats [1]; 10 mg/kg ip, 60 min): 344.5 ± 28.9; PR (normotensive rats [1]; 10 mg/kg ip, 60 min): 54.7 ± 3.1; QRS (normotensive rats [1]; 10 mg/kg ip, 60 min): 23.2 ± 1.9; QTc (normotensive rats [1]; 10 mg/kg ip, 80 min): 218.3 ± 25.5; Rate (normotensive rats [1]; 10 mg/kg ip, 80 min): 350.7 ± 28.1; PR (normotensive rats [1]; 10 mg/kg ip, 80 min): 54.9 ± 4.2; QRS (normotensive rats [1]; 10 mg/kg ip, 80 min): 22.0 ± 1.4; effect on PR (normotensive rats [1]; 20 mg/kg): did not affect; effect on QRS (normotensive rats [1]; 20 mg/kg): did not affect; QTc (normotensive rats [1]; 20 mg/kg ip, 0 min): 198.4 ± 6.1; Rate (normotensive rats [1]; 20 mg/kg ip, 0 min): 317.4 ± 26.0; PR (normotensive rats [1]; 20 mg/kg ip, 0 min): 53.1 ± 2.8; QRS (normotensive rats [1]; 20 mg/kg ip, 0 min): 21.8 ± 1.7; QTc (normotensive rats [1]; 20 mg/kg ip, 5 min): 190.9 ± 8.4; Rate (normotensive rats [1]; 20 mg/kg ip, 5 min): 304.2 ± 32.0; PR (normotensive rats [1]; 20 mg/kg ip, 5 min): 52.4 ± 3.4; QRS (normotensive rats [1]; 20 mg/kg ip, 5 min): 20.9 ± 1.2; QTc (normotensive rats [1]; 20 mg/kg ip, 10 min): 187.8 ± 14.7; Rate (normotensive rats [1]; 20 mg/kg ip, 10 min): 278.4 ± 41.8; PR (normotensive rats [1]; 20 mg/kg ip, 10 min): 55.3 ± 1.7; QRS (normotensive rats [1]; 20 mg/kg ip, 10 min): 22.7 ± 3.4; QTc (normotensive rats [1]; 20 mg/kg ip, 15 min): 179.4 ± 16.4; Rate (normotensive rats [1]; 20 mg/kg ip, 15 min): 256.2 ± 52.1; PR (normotensive rats [1]; 20 mg/kg ip, 15 min): 54.2 ± 2.1; QRS (normotensive rats [1]; 20 mg/kg ip, 15 min): 22.8 ± 2.2; QTc (normotensive rats [1]; 20 mg/kg ip, 20 min): 178.9 ± 21.9; Rate (normotensive rats [1]; 20 mg/kg ip, 20 min): 249.9 ± 53.5; PR (normotensive rats [1]; 20 mg/kg ip, 20 min): 52.1 ± 4.2; QRS (normotensive rats [1]; 20 mg/kg ip, 20 min): 22.7 ± 2.5; QTc (normotensive rats [1]; 20 mg/kg ip, 30 min): 178 ± 21.6 ms; Rate (normotensive rats [1]; 20 mg/kg ip, 30 min): 246.5 ± 55.6; PR (normotensive rats [1]; 20 mg/kg ip, 30 min): 51.3 ± 4.4; QRS (normotensive rats [1]; 20 mg/kg ip, 30 min): 22.0 ± 1.5; QTc (normotensive rats [1]; 20 mg/kg ip, 40 min): 175.7 ± 20.5; Rate (normotensive rats [1]; 20 mg/kg ip, 40 min): 242.1 ± 53.5; PR (normotensive rats [1]; 20 mg/kg ip, 40 min): 54.6 ± 2.4; QRS (normotensive rats [1]; 20 mg/kg ip, 40 min): 23.6 ± 1.5; QTc (normotensive rats [1]; 20 mg/kg ip, 50 min): 179.3 ± 20.7; Rate (normotensive rats [1]; 20 mg/kg ip, 50 min): 239.2 ± 55.4; PR (normotensive rats [1]; 20 mg/kg ip, 50 min): 52.5 ± 4.6; QRS (normotensive rats [1]; 20 mg/kg ip, 50 min): 22.9 ± 2.3; Rate (normotensive rats [1]; 20 mg/kg ip, 60 min): 239.5 ± 56.6; PR (normotensive rats [1]; 20 mg/kg ip, 60 min): 53.7 ± 3.0; QRS (normotensive rats [1]; 20 mg/kg ip, 60 min): 22.1 ± 1.7; QTc (normotensive rats [1]; 20 mg/kg ip, 80 min): 173.0 ± 6.6; Rate (normotensive rats [1]; 20 mg/kg ip, 80 min): 241.0 ± 64.1; PR (normotensive rats [1]; 20 mg/kg ip, 80 min): 53.8 ± 4.1; QRS (normotensive rats [1]; 20 mg/kg ip, 80 min): 21.0 ± 1.3; decrease of heart rate (normotensive rats [1]; 20 mg/kg, 10 min after administration): 12.3%; decrease of heart rate (normotensive rats [1]; 20 mg/kg, 15 min after administration): 19.3%; decrease of QTc (normotensive rats [1]; 20 mg/kg, 15 min post injection): 9.6%; decrease of heart rate (normotensive rats [1]; 20 mg/kg, 20 min after administration): 21.3%; decrease of QTc (normotensive rats [1]; 20 mg/kg, 20 min post injection): 9.8%; decrease of heart rate (normotensive rats [1]; 20 mg/kg, 30 min after administration): 22.3%; decrease of QTc (normotensive rats [1]; 20 mg/kg, 30 min post injection): 10.5%; decrease of heart rate (normotensive rats [1]; 20 mg/kg, 40 min after administration): 23.7%; decrease of QTc (normotensive rats [1]; 20 mg/kg, 40 min post injection): 11.4%; decrease of heart rate (normotensive rats [1]; 20 mg/kg, 50 min after administration): 24.6%; decrease of QTc (normotensive rats [1]; 20 mg/kg, 50 min post injection): 9.6%; decrease of heart rate (normotensive rats [1]; 20 mg/kg, 60 min after administration): 24.5%; decrease of QTc (normotensive rats [1]; 20 mg/kg, 60 min post injection): 8.3%; decrease of heart rate (normotensive rats [1]; 20 mg/kg, 80 min after administration): 24.1%; decrease of QTc (normotensive rats [1]; 20 mg/kg, 80 min post injection): 12.8%; effect on diastolic blood pressure (normotensive rats [2]; 0.625 mg/kg ip): did not affect; effect on systolic blood pressure (normotensive rats [2]; 0.625 mg/kg ip): did not affect; reduction of diastolic blood pressure (normotensive rats [2]; [3]): 12.5–18.3%; reduction of systolic blood pressure (normotensive rats [2]; [3]): 11.2–18.3%; dose reducing blood pressure relative to median effective dose in adrenaline-induced model (normotensive rats [2]; single ip administration): 10 fold; properties at D2 receptors (D2 receptors): antagonistic properties; antidepressant-like effect (mice): antidepressant-like effect
